From publication PMC9231011, “Irreversible Antagonists for the Adenosine A2B Receptor” (Molecules, 2022)
Numbering of substitutions follows the chain as printed.

Assays:
hA3 = molecular target: hA3; parameters: method as in PMID 30835463, PMID 31646479; settings: Figure 1; cited from earlier work
hA2A = molecular target: hA2A; parameters: method as in PMID 30835463, PMID 31646479; settings: Figure 1; cited from earlier work
hA1 = molecular target: hA1; parameters: method as in PMID 30835463, PMID 31646479; settings: Figure 1; cited from earlier work
hA2B = molecular target: hA2B; parameters: method as in PMID 30835463, PMID 31646479; settings: Figure 1; cited from earlier work
[1] = molecular target: T1, mutant human A2BAR (K269^7.32L) (Homo sapiens, UniProt P29275, K269L); experiment: Homologous competition binding of PSB-603 vs [3H]PSB-603 at mutant; settings: K269^7.32L mutant
T1 construct: expressed in transfected cells; host or cells: FreeStyle CHO-S cells, pcDNA3.1(+), transient
T1 sequence (P29275 1-332 K269L): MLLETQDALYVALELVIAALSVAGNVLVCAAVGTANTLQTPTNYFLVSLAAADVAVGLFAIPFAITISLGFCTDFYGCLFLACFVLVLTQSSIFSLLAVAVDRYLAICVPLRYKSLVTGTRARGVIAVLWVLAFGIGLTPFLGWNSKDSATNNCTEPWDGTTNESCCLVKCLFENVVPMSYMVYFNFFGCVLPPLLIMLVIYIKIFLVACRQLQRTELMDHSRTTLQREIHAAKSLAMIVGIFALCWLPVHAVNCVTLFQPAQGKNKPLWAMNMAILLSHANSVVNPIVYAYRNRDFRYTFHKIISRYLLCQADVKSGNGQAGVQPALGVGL
Protocol: The human A2AAR, the mutant human A2BAR (K269^7.32L), and the human A3AR were transiently expressed in FreeStyle^TM CHO-S cells using the transfection reagent polyethylenimine (PEI) at a ratio of 1:3 to DNA according to the manufacturer’s guideline. pcDNA3.1(+) was used as the transfection vector containing the cDNA for either the wt ARs or the K269^7.32L mutant A2BAR that was prepared by site-directed mutagenesis with the following primer: forward […], reverse […]. CHO-S cells were grown in FreeStyle^TM CHO Expression Medium supplemented with 8 mM L-glutamine before use and split to 0.5 mio. cells per mL the day before transfection. Twenty-four hours after transfection, cells were spun down by centrifugation for 15 min at 500× g. […]
Binding experiments were performed using 50 mM Tris buffer (pH 7.4) in a total volume of 400 µL for the A1AR, A2AAR, A3AR, and 1000 µL for the A2BAR. […] Non-specific binding was determined in the presence of 10 µM of 2-chloroadenosine, 10 µM of CGS 15943, 10 µM of 8-cyclopently-1,3-dipropylxanthine or 100 µM of (R)-N^6-phenylisopropyadenosine for A1-, A2A-, A2B- and A3ARs, respectively. […] Subsequently, radioactivity was determined using a liquid scintillation counter (Tricarb 2810TR, Perkin Elmer).

A2BAR = molecular target: T2, A2BAR (Homo sapiens, UniProt P29275); parameters: purchased Perkin Elmer ES-013-M400UA; method as in PMID 19569717; settings: wt A2BAR; read-out: KD of [3H]PSB-603; cited from earlier work
T2 sequence (P29275 1-332): T1 sequence (P29275 1-332 K269L) with L269K

| SMILES | Ki (hA3) [nM] | Ki (hA2A) [nM] | Ki (hA1) [nM] | Ki (hA2B) [nM] | KD of [3H]PSB-603 [1] | Kd [1] [nM] | Kd (A2BAR) [nM] |
| --- | --- | --- | --- | --- | --- | --- | --- |
| CCn1c(=O)c2c(nc(/C=C/c3ccc(OC)c(OC)c3)n2C)n(CC)c1=O [Istradefylline, istradefylline] | 4470 | 26.4 | 841 | > 10000 | – | – | – |
| CCCn1c(=O)[nH]c2nc(-c3ccc(S(=O)(=O)N4CCN(c5ccc(Cl)cc5)CC4)cc3)[nH]c2c1=O [PSB-603] | > 10000 | > 10000 | > 10000 | 0.553 | did not alter | 0.292 ± 0.034 | 0.553 ± 0.103 |
| CCCn1c(=O)[nH]c2nc(-c3ccc(S(=O)(=O)N4CCN(c5ccc(Br)cc5)CC4)cc3)[nH]c2c1=O [PSB-1901] | > 1000 | > 1000 | > 1000 | 0.0835 | – | – | – |
